ChEMBL document CHEMBL1909046, “DrugMatrix in vitro pharmacology data”

Key:
[1] = DRUGMATRIX: Phosphodiesterase PDE3 enzyme inhibition (substrate: [3H]cAMP + cAMP); type: tissue-based, Homo sapiens; settings: platelet; Not Active = under 50% inhibition at 10 µM
[2] = DRUGMATRIX: Nicotinic Acetylcholine radioligand binding (ligand: [125I] Epibatidine); type: cell membranes, Membrane; settings: imr-32; Not Active = under 50% inhibition at 10 µM
[3] = DRUGMATRIX: Serotonin (5-Hydroxytryptamine) 5-HT3 radioligand binding (ligand: [3H] GR-65630); type: cell membranes, Membrane; settings: hek293; Not Active = under 50% inhibition at 10 µM
[4] = DRUGMATRIX: Phosphodiesterase PDE4 enzyme inhibition (substrate: [3H]cAMP + cAMP); settings: u-937; Not Active = under 50% inhibition at 10 µM
[5] = DRUGMATRIX: Glutamate, NMDA, Phencyclidine radioligand binding (ligand: [3H] TCP); type: cell membranes, Rattus norvegicus, Wistar, Cerebral cortex, Membrane; settings: Not Active = under 50% inhibition at 10 µM
Cytochrome P450 2D6 = Cytochrome P450 2D6 (Homo sapiens, UniProt P10635); settings: bti-tn-5b1-4; also: in other assays of this panel Not Active means under 50% inhibition at 10 µM
Sequence of Cytochrome P450 2D6 (P10635 whole entry): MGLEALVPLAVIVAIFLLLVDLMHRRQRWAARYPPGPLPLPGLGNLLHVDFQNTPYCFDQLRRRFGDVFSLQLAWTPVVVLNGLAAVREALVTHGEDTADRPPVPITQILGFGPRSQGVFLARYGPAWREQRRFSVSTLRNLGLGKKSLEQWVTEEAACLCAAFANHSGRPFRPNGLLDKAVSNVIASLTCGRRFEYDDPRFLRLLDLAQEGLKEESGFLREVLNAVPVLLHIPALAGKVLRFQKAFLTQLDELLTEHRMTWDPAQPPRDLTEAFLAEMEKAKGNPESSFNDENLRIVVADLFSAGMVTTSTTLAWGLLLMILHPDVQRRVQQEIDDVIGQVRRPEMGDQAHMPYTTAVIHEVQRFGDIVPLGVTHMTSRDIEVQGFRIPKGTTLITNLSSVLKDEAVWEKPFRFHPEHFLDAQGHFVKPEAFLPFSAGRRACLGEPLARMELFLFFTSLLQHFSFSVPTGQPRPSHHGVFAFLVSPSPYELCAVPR

[6] = DRUGMATRIX: Leukotriene, BLT (LTB4) radioligand binding (ligand: [3H]LTB4); type: cell membranes, Membrane; settings: u-937; Not Active = under 50% inhibition at 10 µM
[7] = molecular target: T1, Alpha-1B adrenergic receptor (Rattus norvegicus, UniProt P15823); assay: DRUGMATRIX: Alpha-1B adrenergic receptor radioligand binding (ligand: prazosin); type: cell membranes, Wistar, Liver, Membrane; settings: Not Active = under 50% inhibition at 10 µM
T1 sequence (P15823 whole entry): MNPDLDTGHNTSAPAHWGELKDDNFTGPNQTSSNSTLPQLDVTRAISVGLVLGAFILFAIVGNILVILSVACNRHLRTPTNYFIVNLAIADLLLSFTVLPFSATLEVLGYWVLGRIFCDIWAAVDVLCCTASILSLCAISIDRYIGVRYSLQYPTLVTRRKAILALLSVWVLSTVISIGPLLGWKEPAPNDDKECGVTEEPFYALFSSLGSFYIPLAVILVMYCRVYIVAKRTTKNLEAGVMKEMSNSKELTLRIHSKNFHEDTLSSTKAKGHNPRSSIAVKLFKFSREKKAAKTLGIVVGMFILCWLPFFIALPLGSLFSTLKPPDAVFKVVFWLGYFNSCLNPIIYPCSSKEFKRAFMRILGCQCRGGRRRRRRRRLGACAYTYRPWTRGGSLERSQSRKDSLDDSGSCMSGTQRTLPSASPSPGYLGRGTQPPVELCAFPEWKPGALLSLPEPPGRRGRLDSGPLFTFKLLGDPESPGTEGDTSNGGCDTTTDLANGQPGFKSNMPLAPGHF

[8] = DRUGMATRIX: Glutamate, Kainate radioligand binding (ligand: [3H] Kainic acid); type: cell membranes, Rattus norvegicus, Wistar, Brain, Membrane; settings: Not Active = under 50% inhibition at 10 µM

C[N+](C)(C)CCOC(=O)CCC(=O)OCC[N+](C)(C)C.[Cl-].[Cl-] [SUCCINYLCHOLINE CHLORIDE]
Not Active: IC50 [1] | Ki [1] | IC50 [2] | Ki [2] | IC50 [3] | Ki [3] | IC50 [4] | Ki [4] | IC50 [5] | Ki [5] | IC50 (Cytochrome P450 2D6) | Ki (Cytochrome P450 2D6) | IC50 [6] | Ki [6] | IC50 [7] | IC50 [8] | Ki [8]

Nc1ccc(S(=O)(=O)NC(=O)c2ccccc2)cc1 [SULFABENZAMIDE]
Not Active: IC50 [1] | Ki [1] | IC50 [2] | Ki [2] | IC50 [3] | Ki [3] | IC50 [4] | Ki [4] | IC50 [5] | Ki [5] | IC50 (Cytochrome P450 2D6) | Ki (Cytochrome P450 2D6) | IC50 [6] | Ki [6] | IC50 [7] | IC50 [8] | Ki [8]

O=c1[nH]c(=O)n(C2CCCO2)cc1F (stereo not drawn) [TEGAFUR]
Not Active: IC50 [1] | Ki [1] | IC50 [2] | Ki [2] | IC50 [3] | Ki [3] | IC50 [4] | Ki [4] | IC50 [5] | Ki [5] | IC50 (Cytochrome P450 2D6) | Ki (Cytochrome P450 2D6) | IC50 [6] | Ki [6] | IC50 [7] | IC50 [8] | Ki [8]

CC(=N)S [THIOACETAMIDE]
Not Active: IC50 [1] | Ki [1] | IC50 [2] | Ki [2] | IC50 [3] | Ki [3] | IC50 [4] | Ki [4] | IC50 [5] | Ki [5] | IC50 (Cytochrome P450 2D6) | Ki (Cytochrome P450 2D6) | IC50 [6] | Ki [6] | IC50 [7] | IC50 [8] | Ki [8]

Cc1ccc(C(=O)c2ccc(CC(=O)O)n2C)cc1 [TOLMETIN]
Not Active: IC50 [1] | Ki [1] | IC50 [2] | Ki [2] | IC50 [3] | Ki [3] | IC50 [4] | Ki [4] | IC50 [5] | Ki [5] | IC50 (Cytochrome P450 2D6) | Ki (Cytochrome P450 2D6) | IC50 [6] | Ki [6] | IC50 [7] | IC50 [8] | Ki [8]

CC(=O)OCC(COC(C)=O)OC(C)=O [TRIACETIN]
Not Active: IC50 [1] | Ki [1] | IC50 [2] | Ki [2] | IC50 [3] | Ki [3] | IC50 [4] | Ki [4] | IC50 [5] | Ki [5] | IC50 (Cytochrome P450 2D6) | Ki (Cytochrome P450 2D6) | IC50 [6] | Ki [6] | IC50 [7] | IC50 [8] | Ki [8]

TRANSPLATIN
Not Active: IC50 [1] | Ki [1] | IC50 [2] | Ki [2] | IC50 [3] | Ki [3] | IC50 [4] | Ki [4] | IC50 [5] | Ki [5] | IC50 (Cytochrome P450 2D6) | Ki (Cytochrome P450 2D6) | IC50 [6] | Ki [6] | IC50 [7] | Ki [7] | IC50 [8] | Ki [8]

ZIRCONIUM(IV) CHLORIDE
Not Active: IC50 [1] | Ki [1] | IC50 [2] | Ki [2] | IC50 [3] | Ki [3] | IC50 [4] | Ki [4] | IC50 [5] | Ki [5] | IC50 (Cytochrome P450 2D6) | Ki (Cytochrome P450 2D6) | IC50 [6] | Ki [6] | IC50 [7] | Ki [7] | IC50 [8] | Ki [8]
